Measurements as given in patent publication US20200405697A1, “Antitumor Agent” (Taiho Pharmaceutical Co., Ltd, priority 2017, published 2020).

Test system: A549 (Human lung cancer cell line)
Experiment: Effect of combination of sulfonamide compound and other antitumor agent (CellTiter-Glo, combination index): A549
[1] = Example Compound 1 281 nM + Fludarabine nucleoside 5920 nM, molar ratio 1:21.08
[2] = Example Compound 1 281 nM + Prexasertib 1.97 nM, molar ratio 1:0.007018
[3] = Example Compound 1 281 nM + SCH900776 908 nM, molar ratio 1:3.232
[4] = Example Compound 1 422 nM + AZD6738 1040 nM, molar ratio 1:2.455
[5] = Example Compound 1 422 nM + Cytarabine 108 nM, molar ratio 1:0.2566
[6] = Example Compound 1 422 nM + Fludarabine nucleoside 8900 nM, molar ratio 1:21.08
[7] = Example Compound 1 422 nM + Prexasertib 2.96 nM, molar ratio 1:0.007018
[8] = Example Compound 1 422 nM + SCH900776 1360 nM, molar ratio 1:3.232
[9] = Example Compound 1 633 nM + AZD6738 1550 nM, molar ratio 1:2.455
[10] = Example Compound 1 633 nM + Fludarabine nucleoside 13300 nM, molar ratio 1:21.08
[11] = Example Compound 1 633 nM + Guadecitabine 489 nM, molar ratio 1:0.7725
[12] = Example Compound 1 633 nM + Prexasertib 4.44 nM, molar ratio 1:0.007018
[13] = Example Compound 1 633 nM + SCH900776 2050 nM, molar ratio 1:3.232
[14] = Example Compound 1 949 nM + AZD6738 2330 nM, molar ratio 1:2.455
[15] = Example Compound 1 949 nM + Azacytidine 2740 nM, molar ratio 1:2.885
[16] = Example Compound 1 949 nM + Cytarabine 244 nM, molar ratio 1:0.2566
[17] = Example Compound 1 949 nM + Decitabine 2000 nM, molar ratio 1:2.108
[18] = Example Compound 1 949 nM + Fludarabine nucleoside 20000 nM, molar ratio 1:21.08
[19] = Example Compound 1 949 nM + Guadecitabine 733 nM, molar ratio 1:0.7725
[20] = Example Compound 1 949 nM + Prexasertib 6.66 nM, molar ratio 1:0.007018
[21] = Example Compound 1 949 nM + SCH900776 3070 nM, molar ratio 1:3.232
[22] = Example Compound 1 949 nM + Sunitinib 1870 nM, molar ratio 1:1.969
[23] = Example Compound 1 949 nM + Trifluridine 430 nM, molar ratio 1:0.4535
[24] = Example Compound 1 1420 nM + 5-Fluorouracil 2700 nM, molar ratio 1:1.900
[25] = Example Compound 1 1420 nM + AZD6738 3490 nM, molar ratio 1:2.455
[26] = Example Compound 1 1420 nM + Azacytidine 4100 nM, molar ratio 1:2.885
[27] = Example Compound 1 1420 nM + Cytarabine 364 nM, molar ratio 1:0.2566
[28] = Example Compound 1 1420 nM + Decitabine 2990 nM, molar ratio 1:2.108
[29] = Example Compound 1 1420 nM + Etoposide 3780 nM, molar ratio 1:2.663
[30] = Example Compound 1 1420 nM + Gemcitabine 8.37 nM, molar ratio 1:0.005895
[31] = Example Compound 1 1420 nM + Guadecitabine 1100 nM, molar ratio 1:0.7725
[32] = Example Compound 1 1420 nM + Lapatinib 5990 nM, molar ratio 1:4.216
[33] = Example Compound 1 1420 nM + Luminespib 13.5 nM, molar ratio 1:0.009473
[34] = Example Compound 1 1420 nM + Midostaurin 250 nM, molar ratio 1:0.1761
[35] = Example Compound 1 1420 nM + Olaparib 14800 nM, molar ratio 1:10.40
[36] = Example Compound 1 1420 nM + Oxaliplatin 1060 nM, molar ratio 1:0.7448
[37] = Example Compound 1 1420 nM + Sunitinib 2800 nM, molar ratio 1:1.969
[38] = Example Compound 1 1420 nM + Talazoparib 7980 nM, molar ratio 1:5.617
[39] = Example Compound 1 1420 nM + Trifluridine 644 nM, molar ratio 1:0.4535
[40] = Example Compound 1 2140 nM + Cabozantinib […], molar ratio 1:4.216
[41] = Example Compound 1 2140 nM + Carboplatin 79500 nM, molar ratio 1:37.17
[42] = Example Compound 1 2140 nM + Cisplatin 9620 nM, molar ratio 1:4.494
[43] = Example Compound 1 2140 nM + Trifluridine 970 nM, molar ratio 1:0.4535
[44] = Example Compound 1 3200 nM + Carboplatin 119000 nM, molar ratio 1:37.17
[45] = Example Compound 1 3200 nM + Cisplatin 14400 nM, molar ratio 1:4.494
[46] = Example Compound 1 4810 nM + Carboplatin 179000 nM, molar ratio 1:37.17

Cc1ccc(F)c([C@@H](C)[C@H](NS(=O)(=O)c2ccc(Br)cc2C(N)=O)c2n[nH]c(=O)o2)c1C [Example 1, 5-bromo-2-(N-((1 S,2R)-2-(6-fluoro-2,3-dimethylphenyl)-1-(5-oxo-4,5-dihydro-1,3,4-oxadiazol-2-yl)propyl)sulfamoyl)benzamide]
CI value [1]: 0.550
Fa value [1]: 0.2653
CI value [2]: 0.349
Fa value [2]: 0.3570
CI value [3]: 0.196
Fa value [3]: 0.6117
CI value [4]: 0.449
Fa value [4]: 0.5145
CI value [5]: 0.770
Fa value [5]: 0.4482
CI value [6]: 0.388
Fa value [6]: 0.6824
CI value [7]: 0.226
Fa value [7]: 0.7264
CI value [8]: 0.195
Fa value [8]: 0.7479
CI value [9]: 0.350
Fa value [9]: 0.7602
CI value [10]: 0.367
Fa value [10]: 0.8650
CI value [11]: 0.471
Fa value [11]: 0.4374
CI value [12]: 0.193
Fa value [12]: 0.8863
CI value [13]: 0.190
Fa value [13]: 0.8581
CI value [14]: 0.315
Fa value [14]: 0.8849
CI value [15]: 0.895
Fa value [15]: 0.5060
CI value [16]: 0.461
Fa value [16]: 0.7886
CI value [17]: 0.501
Fa value [17]: 0.5507
CI value [18]: 0.537
Fa value [18]: 0.8719
CI value [19]: 0.502
Fa value [19]: 0.5583
CI value [20]: 0.288
Fa value [20]: 0.8866
CI value [21]: 0.257
Fa value [21]: 0.8783
CI value [22]: 0.721
Fa value [22]: 0.6537
CI value [23]: 0.890
Fa value [23]: 0.6005
CI value [24]: 0.881
Fa value [24]: 0.6426
CI value [25]: 0.482
Fa value [25]: 0.8809
CI value [26]: 0.676
Fa value [26]: 0.7364
CI value [27]: 0.491
Fa value [27]: 0.8557
CI value [28]: 0.583
Fa value [28]: 0.6575
CI value [29]: 0.772
Fa value [29]: 0.6999
CI value [30]: 0.858
Fa value [30]: 0.8410
CI value [31]: 0.563
Fa value [31]: 0.6756
CI value [32]: 0.480
Fa value [32]: 0.8412
CI value [33]: 0.894
Fa value [33]: 0.7741
CI value [34]: 0.871
Fa value [34]: 0.7361
CI value [35]: 0.761
Fa value [35]: 0.6398
CI value [36]: 0.831
Fa value [36]: 0.7172
CI value [37]: 0.688
Fa value [37]: 0.8162
CI value [38]: 0.661
Fa value [38]: 0.6630
CI value [39]: 0.717
Fa value [39]: 0.8230
CI value [40]: 0.790
Fa value [40]: 0.9173
CI value [41]: 0.632
Fa value [41]: 0.9198
CI value [42]: 0.848
Fa value [42]: 0.9125
CI value [43]: 0.761
Fa value [43]: 0.8988
CI value [44]: 0.502
Fa value [44]: 0.9734
CI value [45]: 0.694
Fa value [45]: 0.9675
CI value [46]: 0.569
Fa value [46]: 0.9841
